Reference: patent publication US20260250320A1, “LIPIDATED PEPTIDE INHIBITORS OF INTERLEUKIN-23 RECEPTOR” (Janssen Pharmaceutica NV, priority 2023, published 2026)
*1 amine or outer side, *2 acyl side, *3 side chain or, on linkers, in order; H or OH if unused. Where a SMILES comes first, the peptide text is derived from it. Bridges are numbered along the chain shown (N, C = ends). Side-chain parts run from the residue outwards. [ ]: non-standard residue; d: D form. The star is where a group is joined. ξ: configuration not given here. X16 = CC(C)(S[*:2])[C@H](CC(=O)CCOCCOCC[N+](C)(C)C)C(=O)[*:1]; PEG12 = NCCOCCOCCOCCOCCOCCOCCOCCOCCOCCOCCOCCOCCC(=O)O; CH2CH2OCH2CH2OCH2CH2NMe3+ = C[N+](C)(C)CCOCCOCC*; Trp(7-Me) = Cc1cccc2c(C[C@H](N)C(=O)O)c[nH]c12; C18 diacid = O=C(O)CCCCCCCCCCCCCCCCC(=O)*; γGlu = O=C(O)[C@H](CCC(=O)[*:2])N[*:1]; 2Nal = N[C@@H](Cc1ccc2ccccc2c1)C(=O)O; AEF = NCCOc1ccc(C[C@H](N)C(=O)O)cc1; X2 = C[N+](C)(C)C[C@@H](CC(=O)O)N*; 3Pal = N[C@@H](Cc1cccnc1)C(=O)O; Lys(Me) = CNCCCC[C@H](N)C(=O)O; NMeK = CN[C@@H](CCCCN)C(=O)O; Pen = CC(C)(S)[C@H](N)C(=O)O; Suc = O=C(CCC(=O)[*:2])[*:1]; Thp = NC1(C(=O)O)CCOCC1; X1 = C[N+](C)(C)CCCCC*; ξN = NC(=O)CC(N)C(=O)O; AEEA = NCCOCCOCC(=O)O; Sar = CNCC(=O)O

Columns and labels:
IL-23R = molecular target: T1, IL-23R (Homo sapiens, UniProt Q5VWK5); test: IL23R Reporter Assay; assay type: cell-based; conditions: HEK293 cells containing IL-23R, IL-12Rβ1 and STAT-inducible firefly luciferase reporter; 10 ng/mL IL-23 (EC90); 5 h
T1 construct: HEK293 cells containing IL-23R, IL-12Rβ1 and a firefly luciferase reporter gene driven by a STAT-inducible promoter (Promega); host or cells: HEK293
T1 sequence (Q5VWK5 24-629): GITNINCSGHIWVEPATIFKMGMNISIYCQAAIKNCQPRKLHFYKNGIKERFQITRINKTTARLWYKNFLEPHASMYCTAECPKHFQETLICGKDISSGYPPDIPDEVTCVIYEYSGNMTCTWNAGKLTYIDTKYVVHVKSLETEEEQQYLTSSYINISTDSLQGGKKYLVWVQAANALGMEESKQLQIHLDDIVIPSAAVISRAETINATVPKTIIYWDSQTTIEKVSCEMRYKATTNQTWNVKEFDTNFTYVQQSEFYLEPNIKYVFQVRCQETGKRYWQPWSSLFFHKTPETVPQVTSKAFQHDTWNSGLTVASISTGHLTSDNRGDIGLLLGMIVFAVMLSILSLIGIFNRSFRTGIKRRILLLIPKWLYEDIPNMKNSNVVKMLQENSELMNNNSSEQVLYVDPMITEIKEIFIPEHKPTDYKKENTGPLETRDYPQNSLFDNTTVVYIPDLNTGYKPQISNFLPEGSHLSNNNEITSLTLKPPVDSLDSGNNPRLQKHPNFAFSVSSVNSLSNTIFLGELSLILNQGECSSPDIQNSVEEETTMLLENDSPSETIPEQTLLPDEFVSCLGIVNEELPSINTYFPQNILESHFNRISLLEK
In short: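 IC50 values were fitted with a 4-parameter Hill equation to luciferase signal, scaled between IL-23-only wells (0% inhibition) and 30 μM reference inhibitor (100%). The readout was a STAT-inducible reporter in IL-23R/IL-12Rβ1 HEK293 cells, stimulated with added 10 ng/mL IL-23 (EC90) for 5 h at 37° C and developed with BioGlo.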

[1] = tested on: IL-23-stimulated phosphorylated STAT3 in peripheral blood mononuclear cells (PBMCs); test: PBMC pSTAT3 Assay; assay type: cell-based; conditions: PBMCs from healthy donors; 30 min preincubation with peptide; IL-23 5 ng/mL for 30 min; phospho-STAT3 by MSD
In short: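 Phospho-STAT3 quantified by Meso Scale assay in lysates of PBMCs exposed to IL-23 (5 ng/mL, 30 min, 37 °C) after 30 min peptide pretreatment. Cells were cryopreserved donor PBMCs activated 4 days with anti-CD3 plus IL-1β (100 ng/mL) and starved ~4 h; IC50 reported.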

SMILES	IC50 (IL-23R) [nM]	IC50 [1] [nM]
CC(=O)NCCCC[C@@H]1NC(=O)[C@H](Cc2c[nH]c3c(C)cccc23)NC(=O)[C@H]([C@@H](C)O)NC(=O)[C@H](CC(N)=O)NC(=O)[C@@H](NC(C)=O)C(C)(C)SSC(C)(C)[C@@H](C(=O)N[C@@H](Cc2ccc(OCCN)cc2)C(=O)N[C@@H](Cc2ccc3ccccc3c2)C(=O)NC2(C(=O)N[C@@H](CCC(=O)O)C(=O)N[C@@H](CC(N)=O)C(=O)N[C@@H](Cc3cccnc3)C(=O)N(C)CC(=O)N[C@@H](CCCCNC(=O)COCCOCCN(C)C(=O)COCCOCCN(C)C(=O)CC[C@@H](C(=O)O)N(C)C(=O)CCCCCCCCCCCCCCCCCc3nnn[nH]3)C(N)=O)CCOCC2)NC1=O [compound 3, MeCO-Pen(3)-N-T-7MeW-K(Ac)-Pen(3)-AEF-2Nal-THP-E-N-3Pya-Sar-K(PEG2NMePEG2NMegENMeC18Tetrazole)-CONH2]	< 50	< 0.5
CC(=O)NCCCC[C@@H]1NC(=O)[C@H](Cc2c[nH]c3c(C)cccc23)NC(=O)[C@H]([C@@H](C)O)NC(=O)[C@H](CC(N)=O)NC(=O)[C@@H](NC(=O)[C@H](CCCCNC(=O)COCCOCCNC(=O)COCCOCCNC(=O)CC[C@H](NC(=O)CCCCCCCCCCCCCCCCC(=O)O)C(=O)O)NC(C)=O)C(C)(C)SSC(C)(C)[C@@H](C(=O)N[C@@H](Cc2ccc(OCCCCC[N+](C)(C)C)cc2)C(=O)N[C@@H](Cc2ccc3ccccc3c2)C(=O)NC2(C(=O)N[C@@H](CCCCNC(C)=O)C(=O)NC(CC(N)=O)C(=O)N[C@@H](Cc3cccnc3)C(=O)N(C)CC(N)=O)CCOCC2)NC1=O (stereo partly drawn) [compound 62, MeCO-K(PEG2PEG2gEC18OH)-Pen(3)-N-T-7MeW-K(Ac)-Pen(3)-TMAPF-2Nal-THP-K(Ac)-3-Pya-Sar-CONH2] (Ac-K([AEEA-AEEA-γGlu-C18 diacid])[Pen]NT[Trp(7-Me)]K(Ac)[Pen]Y(X1)[2Nal][Thp]K(Ac)[ξN][3Pal][Sar]-NH2; disulfide 2-7)	< 50	< 0.5
CC(=O)N(C)CCCC[C@@H]1NC(=O)[C@H](Cc2c[nH]c3c(C)cccc23)NC(=O)[C@H]([C@@H](C)O)NC(=O)[C@H](CC(=O)N(C)C)NC(=O)[C@@H](NC(=O)CCOCCOCCOCCOCCOCCOCCOCCOCCOCCOCCOCCOCCNC(=O)CC[C@H](NC(=O)CCCCCCCCCCCCCCCCC(=O)O)C(=O)O)C(C)(C)SSC(C)(C)[C@@H](C(=O)N[C@@H](Cc2ccc(OCCCCC[N+](C)(C)C)cc2)C(=O)N[C@@H](Cc2ccc3ccccc3c2)C(=O)NC2(C(=O)N[C@@H](CCCCN(C)C(C)=O)C(=O)N[C@@H](CC(N)=O)C(=O)N[C@@H](Cc3cccnc3)C(=O)N(C)CC(=O)N(C)C)CCOCC2)NC1=O [compound 95, HOC18gEPEG12CO-Pen(3)-N(N(Me)2)-T-7MeW-K(NMeAc)-Pen(3)-TMAPF-2Nal-THP-K(NMeAc)-N-3Pya-Sar-CON(Me)2] ({C18 diacid-γGlu-PEG12}-[Pen]D(NMe2)T[Trp(7-Me)][Lys(Me)](Ac)[Pen]Y(X1)[2Nal][Thp][Lys(Me)](Ac)N[3Pal][Sar]-NMe2; disulfide 1-6)	< 50	< 0.5
CC(=O)NCCCC[C@@H]1NC(=O)[C@H](Cc2c[nH]c3c(C)cccc23)NC(=O)[C@H]([C@@H](C)O)NC(=O)[C@H](CC(N)=O)NC(=O)[C@@H](NC(=O)[C@@H](CCCNC(=N)N)NC(=O)CCC(=O)N[C@H](CC(=O)O)C[N+](C)(C)C)C(C)(C)SSC(C)(C)[C@@H](C(=O)N[C@@H](Cc2ccc(OCCN)cc2)C(=O)N[C@@H](Cc2ccc3ccccc3c2)C(=O)NC2(C(=O)N[C@@H](CCC(=O)O)C(=O)N[C@@H](CC(N)=O)C(=O)N[C@@H](Cc3cccnc3)C(=O)N(C)[C@@H](CCCCNC(=O)COCCOCCNC(=O)COCCOCCNC(=O)CC[C@H](NC(=O)CCCCCCCCCCCCCCCCC(=O)O)C(=O)O)C(N)=O)CCOCC2)NC1=O [compound 31, succiniccarn-r-Pen(3)-N-T-7MeW-K(Ac)-Pen(3)-AEF-2Nal-THP-E-N-3Pya-NMeK(PEG2PEG2gEC18OH)-CONH2] ({X2-Suc}-[dR][Pen]NT[Trp(7-Me)]K(Ac)[Pen][AEF][2Nal][Thp]EN[3Pal][NMeK]([AEEA-AEEA-γGlu-C18 diacid])-NH2; disulfide 2-7)	50 to 500	< 0.5
CC(=O)N(C)CCCC[C@@H]1NC(=O)[C@H](Cc2c[nH]c3c(C)cccc23)NC(=O)[C@H]([C@@H](C)O)NC(=O)[C@H](CC(=O)N(C)C)NC(=O)[C@@H](CC(=O)CCOCCOCC[N+](C)(C)C)C(C)(C)SSC(C)(C)[C@@H](C(=O)N[C@@H](Cc2ccc(OCCOCCOCC[N+](C)(C)C)cc2)C(=O)N[C@@H](Cc2ccc3ccccc3c2)C(=O)NC2(C(=O)N[C@@H](CCCCN(C)C(C)=O)C(=O)NC(CC(N)=O)C(=O)N[C@@H](Cc3cccnc3)C(=O)N(C)[C@@H](CCCCNC(=O)COCCOCCNC(=O)COCCOCCNC(=O)CC[C@H](NC(=O)CCCCCCCCCCCCCCCCC(=O)O)C(=O)O)C(N)=O)CCOCC2)NC1=O (stereo partly shown) [compound 113, cPEG3aCO-Pen(3)-N(N(Me)2)-T-7MeW-K(NMeAc)-Pen(3)-APEG3F-2Nal-THP-K(NMeAc)-N-3Pya-NMeK(PEG2PEG2gEC18OH)-CONH2] (D(NMe2)T[Trp(7-Me)][Lys(Me)](Ac)[Pen]Y(CH2CH2OCH2CH2OCH2CH2NMe3+)[2Nal][Thp][Lys(Me)](Ac)[ξN][3Pal][NMeK]([AEEA-AEEA-γGlu-C18 diacid])-NH2; linker N-5 via X16)	< 50	< 0.5
CC(=O)N[C@H](CCCNC(=N)N)C(=O)N[C@@H]1C(=O)N[C@@H](CC(N)=O)C(=O)N[C@@H]([C@@H](C)O)C(=O)N[C@@H](Cc2c[nH]c3c(C)cccc23)C(=O)N[C@@H](CCCCNC(=O)CCC(=O)N[C@H](CC(=O)O)C[N+](C)(C)C)C(=O)N[C@H](C(=O)N[C@@H](Cc2ccc(OCCN)cc2)C(=O)N[C@@H](Cc2ccc3ccccc3c2)C(=O)NC2(C(=O)N[C@@H](CCCCNC(=O)COCCOCCNC(=O)COCCOCCNC(=O)CC[C@H](NC(=O)CCCCCCCCCCCCCCCCC(=O)O)C(=O)O)C(=O)N[C@@H](CC(N)=O)C(=O)N[C@@H](Cc3cccnc3)C(=O)N(C)CC(N)=O)CCOCC2)C(C)(C)SSC1(C)C [compound 48, MeCO-r-Pen(3)-N-T-7MeW-K(d)-Pen(3)-AEF-2Nal-THP-K(PEG2PEG2gEC18OH)-N-3Pya-Sar-CONH2] (Ac-[dR][Pen]NT[Trp(7-Me)]K([Suc-X2])[Pen][AEF][2Nal][Thp]K([AEEA-AEEA-γGlu-C18 diacid])N[3Pal][Sar]-NH2; disulfide 2-7)	50 to 500	< 0.5
CC(=O)NCCCC[C@@H]1NC(=O)[C@H](Cc2c[nH]c3c(C)cccc23)NC(=O)[C@H]([C@@H](C)O)NC(=O)[C@H](CC(N)=O)NC(=O)[C@@H](NC(=O)CCOCCOCC[N+](C)(C)C)C(C)(C)SSC(C)(C)[C@@H](C(=O)N[C@@H](Cc2ccc(OCCCCC[N+](C)(C)C)cc2)C(=O)N[C@@H](Cc2ccc3ccccc3c2)C(=O)NC2(C(=O)N[C@@H](CCCCNC(=O)COCCOCCNC(=O)COCCOCCNC(=O)CC[C@H](NC(=O)CCCCCCCCCCCCCCCCCCC(=O)O)C(=O)O)C(=O)N[C@@H](N)C(=O)N[C@@H](Cc3ccccn3)C(=O)N(C)CC(N)=O)CCOCC2)NC1=O [compound 126, cPEG3aCO-Pen(3)-N(N(Me)2)-T-7MeW-K(NMeAc)-Pen(3)-TMAPF-2Nal-THP-K(PEG2PEG2gEC20OH)-N-3Pya-Sar-CON(Me)2]	< 50	< 0.5
CC(=O)NCCCC[C@H](NC(=O)C1(NC(=O)[C@H](Cc2ccc3ccccc3c2)NC(=O)[C@H](Cc2ccc(OCCN)cc2)NC(=O)[C@@H](NC(=O)[C@@H](N)CCCCNC(C)=O)C(C)(C)SSC(C)(C)[C@H](NC(C)=O)C(=O)N[C@@H](CC(N)=O)C(=O)N[C@H](C(=O)N[C@H](Cc2c[nH]c3c(C)cccc23)C(C)=O)[C@@H](C)O)CCOCC1)C(=O)N[C@@H](CC(N)=O)C(=O)N[C@@H](Cc1cccnc1)C(=O)N(C)CC(=O)N[C@@H](CCCCNC(=O)COCCOCCN(C)C(=O)COCCOCCN(C)C(=O)CC[C@@H](C(=O)O)N(C)C(=O)CCCCCCCCCCCCCCCCCc1nnn[nH]1)C(N)=O [compound 2, MeCO-Pen(3)-N-T-7MeW-K(Ac)-Pen(3)-AEF-2Nal-THP-K(Ac)-N-3Pya-Sar-K(PEG2NMePEG2NMegENMeC18Tetrazole)-CONH2]	50 to 500	< 0.5
